Source: patent US20050027015A1 (priority 2001, published 2005)

Assays:
[1] = system: somatostain (SS); conditions: pigs, poultry, fowls, goats, rabbits and fish; cited from earlier work
[2] = system: animals; conditions: ingesting cysteamine directly; cited from earlier work
[3] = exposed to air or at an elevated temperature; cited from earlier work
[4] = system: black & white dairy cows; experiment: Experiment 3: three-stage feeding trial, black & white dairy cows; type: in vivo; conditions: control group, 40 g per cow every other day, versus 20 g daily (2.89 vs 2.73 wt %)
Description: Thirty-two black & white dairy cows were used in the experiment and were randomly divided into four groups, namely test Groups I to III, and a control group. Each group had eight cows. […] There were three stages in the experiment. In the first stage of the experiment, the feed for the test Groups I to III of cows was mixed with the composition such that each cow in the three test groups was fed with 20 g, 30 g and 40 g of the composition respectively daily. No cysteamine-containing composition was mixed in the feed for the control group of cows. The first stage of the experiment lasted for thirty-seven days and was preceded by a three-day adaptation period. During the second stage of the experiment, the composition was not added to the feed for the three test groups of cows. However, each cow in the control group was fed with 20 g of the composition daily via its feed. The second stage of the experiment lasted for seven days. During the third stage of the experiment, the three test groups of cows were fed with the feed mixed with the composition such that 20 g of the composition was taken by each cow daily. Each cow in the control group was fed with 40 g of the composition every other day via the feed. The third stage of the experiment lasted for seven days. The daily milk yield, milk fat content, milk protein content and somatic cells in milk were measured and recorded. […]

Structure (SMILES): NCCS [cysteamine]
- effect on somatostain (SS) [1]: can deplete somatostain (SS)
- gastro side effects [2]: will cause undesirable gastro side effects
- oxidation [3]: readily oxidized
- increase of milk protein content [4]: 5.86%
